Results as given in publication PMC12114947, “Evaluation of Violacein Metabolic Stability and Metabolite Identification in Human, Mouse, and Rat Liver Microsomes” (Pharmaceutics, 2025).

Assay: in vitro
Assay type: in vitro ADME
Settings: human
Protocol: The metabolic stability of volacein was assessed as described by Godoi et al. and Antunes et al.. Aliquots (4 µL) of 100 µM violacein working solution and 96 µL of the NADPH-regenerating system, containing 1.1 mM NADP^+, 10 mM glucose-6-phosphate, 1 U/mL glucose-6-phosphate dehydrogenase, 5 mM sodium citrate, and 66 mM magnesium chloride in 100 mM phosphate buffer, pH 7.4, were transferred to propylene tubes and pre-incubated for 5 min in an MTC 100 thermo shaker incubator (Miulab, Zhejiang, China) at 300 rpm and 37 °C. Subsequently, the metabolic reactions were initiated by adding 100 μL of microsomal proteins from HLMs, RLMs, and MLMs at a concentration of 2 mg/mL to the pre-incubated shaking tubes, resulting in final concentrations of 2 μM for violacein and 1 mg/mL for microsomal proteins. In this experiment, seven incubation times were planned for each species (0, 3, 5, 15, 30, 60, and 120 min), in triplicate. At each time interval, the reactions were stopped by adding 400 μL of ice-cold acetonitrile spiked with 10 µM omeprazole (IS) to each tube. Finally, the samples were vortexed for 5 min in a BenchMixer^TM XL (Benchmark, NJ, USA) and centrifuged at 12,000× g for 15 min at 4 °C (Hettich® Universal 320 R, Tuttlingen, Germany). The supernatants were transferred to a 96-well plate and 8 μL was injected into the LC-MS/MS system (see Section 2.3).
All incubations were performed simultaneously with positive and negative controls. The positive controls were prepared by incubating dapaconazole at the same conditions as violacein (final concentrations: 2 μM) and its metabolic stability was compared with previous studies. Similarly, the negative controls were prepared by incubating violacein in buffer solution, in the absence of microsome and cofactor solutions.
Violacein was analyzed using LC-MS/MS (LC-QQQ MS, LCMS8045, Shimadzu, Kyoto, Japan). Chromatographic separation was achieved on a Raptor^TM Biphenyl column (2.1 × 100 mm, 2.7 μm) at 40 °C. The mobile phases consisted of water (mobile phase A) and methanol (mobile phase B), both containing 2 mM ammonium formate and 0.1% (v/v) formic acid. A flow rate of 0.3 mL/min was used with an elution gradient starting at 20% mobile phase B and holding for 0.2 min, followed by a linear increase to 95% mobile phase B over 2 min that was then maintained for 1 min, with a return to the initial condition in 0.2 min. The total chromatographic run time was 5 min.
In vitro t1/2 was calculated using to the following equation [60, 61]:(1) t1/2=ln(2)/k where k is the slope of the log-linear regression graph of the percentage of drug remaining as a function of time.
CLint, in vitro was calculated using to the following equation [60, 61]:(2) CLint, in vitro=0.693/t1/2×Vincubation/mmicrosomes where Vincubation indicates the volume of the incubation in μL and mmicrosomes indicates the mass of microsomal proteins added to the incubation solution in mg.
After determining CLint, in vitro, it was possible to calculate CLint, in vivo using allometric scaling, as follows:(3) CLint, in vivo=CLint, in vitro×mmicrosomes/gliver×mliver/kgper body weight where mmicrosomes is 61, 45, and 40 mg and represents the mass of microsomal protein per gram of liver (gliver) for rats, mice, and humans, respectively. The mliver is 40, 87.5, and 25.7 g/kg and represents the mass of liver per kilogram of body weight (kgper body weight) for rats, mice, and humans, respectively.
Metabolic stability was evaluated by linear regression analysis of the residual violacein after incubating 4 µM violacein with 2 mg/mL of HLMs, MLMs, and RLMs in the presence of the enzymatic cofactors required for CYP function in microsomes. Calculation of the in vitro violacein metabolic stability was achieved by plotting the remaining percentage of violacein on the y-axis and the incubation time on the x-axis (Figure 1a). […]

SMILES: O=C1NC(c2c[nH]c3ccc(O)cc23)=C/C1=C1\C(=O)Nc2ccccc21 [violacein]
- Ln Z (0 min, 2 µM, pH 7.4): 4.605
- Slope (k), metabolism rate constant (2 µM, pH 7.4): y = −0.0032x + 4.3894 r^2 = 0.9651 Slope (k) = 0.0032
- Ln Z (3 min, 2 µM, pH 7.4): 4.462
- Ln Z (5 min, 2 µM, pH 7.4): 4.417
- Ln Z (15 min, 2 µM, pH 7.4): 4.316
- Ln Z (30 min, 2 µM, pH 7.4): 4.277
- Ln Z (60 min, 2 µM, pH 7.4): 4.183
- Ln Z (120 min, 2 µM, pH 7.4): 4.017
- Z (%), remaining percentage of violacein (microsomes, 0 h, 2 µM, pH 7.4): 100%
- CLint, in vivo (microsomes, 2 µM, pH 7.4): 6.58 mL/min/kg
- Z (%), remaining percentage of violacein (microsomes, 0.05 h, 2 µM, pH 7.4): 87%
- Z (%), remaining percentage of violacein (microsomes, 5 min, 2 µM, pH 7.4): 83%
- Z (%), remaining percentage of violacein (microsomes, 0.25 h, 2 µM, pH 7.4): 75%
- Z (%), remaining percentage of violacein (microsomes, 0.5 h, 2 µM, pH 7.4): 72%
- Z (%), remaining percentage of violacein (microsomes, 1 h, 2 µM, pH 7.4): 66%
- half-life at 2 µM (microsomes, pH 7.4): 3.6 h
- microsomal CLint at 2 µM (microsomes, pH 7.4): 6.4 µL/min/mg
- CLint scaled at 2 µM (microsomes, pH 7.4, CLint, in vivo): 6.6 mL/min/kg
